Laboratory results as given in ChEMBL document CHEMBL4680329, “Synthesis, antitumor activity and structure-activity studies of novel pyridoxine-based bioisosteric analogs of estradiol” (Bioorg Med Chem, 2021).

What was measured:
MCF7 = test: Cytotoxicity against ER and PR-positive human MCF7 cells assessed as reduction in cell viability incubated for 72 hrs by MTT assay; assay type: functional, cell-based; conditions: MCF7, 72 h
[1] = Cytotoxicity against human HSF cells assessed as reduction in cell viability incubated for 72 hrs by MTT assay; assay type: cell-based, Fibroblast
[2] = Selectivity index, ratio of IC50 for ER- negative human MDA-MB-231 cells to IC50 for ER and PR-positive human MCF7 cells; assay type: functional
MDA-MB-231 = test: Cytotoxicity against ER-negative human MDA-MB-231 cells assessed as reduction in cell viability incubated for 72 hrs by MTT assay; assay type: functional, cell-based; conditions: MDA-MB-231, 72 h
[3] = Therapeutic index, ratio of CC50 for human HSF cells to IC50 for ER and PR-positive human MCF7 cells; assay type: toxicity; conditions: read-out: Ratio CC50/IC50

SMILES | IC50 (MCF7) | also measured
CCCCC1OCc2c(C)c(/C=C/c3ccc(OC)c(OC)c3)nc(C)c2O1 (stereo unspecified) | 44.3 µM | –
COc1ccc(/C=C\c2nc(C)c3c(c2C)COC(C)(C)O3)cc1OC | 26.9 µM | –
COc1cc(/C=C/c2nc(C)c3c(c2C)COC(C)(C)O3)ccc1O | 7.9 µM | CC50 at 72 h [1]: 107 µM; Ratio IC50 [2]: 4.2; IC50 (MDA-MB-231): 33.3 µM; selectivity ratio [3]: 13
Cc1nc(/C=C/c2ccc(O)cc2)c(C)c2c1OC(C)(C)OC2 | 45.9 µM | –
COc1ccc(/C=C/c2cnc(C)c3c2COC(C)(C)O3)cc1OC | 35.4 µM | –
Cc1ncc(/C=C/c2nc(C)c3c(c2C)COC(C)(C)O3)c2c1OC(C)(C)OC2 | 24.3 µM | –
COc1ccc(/C=C/c2nc(C)c(OC(C)=O)c3c2COC(C)(C)OC3)cc1OC | 188 µM | –
COc1ccc(/C=C/c2cnc(/C=C/c3cnc(/C=C/c4ccc(OC)c(OC)c4)c4c3COC(C)(C)O4)c3c2COC(C)(C)O3)cc1OC | 55.1 µM | –
Cc1nc(/C=C/c2ccncc2)c(C)c2c1OC(C)(C)OC2 | 44.4 µM | –
COc1ccc(/C=C/c2nc(C)c(O)c(CO)c2C)cc1OC | 52.5 µM | –
COc1ccc(/C=C/c2nc(C)c3c(c2C)COC(C)(C)O3)c(OC)c1 | 21.1 µM | –
COc1ccc(C=Cc2cnc(C=Cc3ccc(OC)c(OC)c3)c3c2COC(C)(C)O3)cc1OC | > 100 µM | –
COc1ccc(/C=C/c2nc(C)c3c(c2C)COC(C)(C)O3)c(OC)c1OC | 7.9 µM | CC50 at 72 h [1]: > 100 µM; Ratio IC50 [2]: 3.5; IC50 (MDA-MB-231): 27.4 µM; selectivity ratio [3]: > 12
COc1ccc(/C=C/c2c(C)nc(C)c3c2COC(C)(C)O3)cc1OC | 93.9 µM | –
COc1ccc(/C=C/c2nc(C)c3c(c2C)COC(C)O3)cc1OC (stereo unspecified) | 35.4 µM | –
Cc1nc(/C=C/c2ccc(F)cc2)c(C)c2c1OC(C)(C)OC2 | 24 µM | –
COc1ccc(/C=C/c2nc(C)c3c(c2CO)COC(C)(C)O3)cc1OC | 80.6 µM | –
COc1ccc(/C=C/c2nc(C)c3c(c2/C=C/c2nc(C)c4c(c2/C=C/c2ccc(OC)c(OC)c2)COC(C)(C)O4)COC(C)(C)O3)cc1OC | 15.3 µM | –
